{"source": "patent US20260224475A1", "about": "“MULTI-COMPONENT INTRAVAGINAL RING” (priority 2023, published 2026)", "key": {"[1]": {"tested_on": "HSV-2 G", "assay": "HSV-2 plaque reduction assay", "assay_type": "cell-based", "details": "Human alphaherpesvirus 2, single API, 30 min pre-incubation with HSV-2 G in saline, read-out: EC50 (95% confidence interval)", "experimental": "The HSV-2 plaque reduction assay was performed to test the anti-HSV-2 activity of ZA, CS and LA. […] Virus controls containing HSV-2 in saline were incubated under the same conditions. After incubation all dilutions and controls were diluted 1/10 in DMEM and tittered using the plaque assay. FIG. 12 and Table 10 show the results. […] The data represented the average of two independent experiments. In Table 10, the molar ratio of CS:LA:ZA in ZS-CA-LA is 1:20:100."}, "[2]": {"tested_on": "N. gonorrhoeae", "assay": "Minimal cidal concentration (MCC)", "assay_type": "cell-based"}, "[3]": {"tested_on": "human sperm", "assay": "Sperm-Cervical Mucus Penetration Test (SMPT) in methylcellulose", "assay_type": "cell-based", "details": "Homo sapiens, Sperm"}, "[4]": {"tested_on": "VEC-100 tissue", "protocol": "VEC-100 tissues were incubated with APIs for 24 hr. Tissue viability was analyzed by MTT and LDH assay and TEER measurements were recorded."}, "[5]": {"tested_on": "VEC-100 tissue", "assay": "VEC-100 tissue, repeated exposure (1 hr daily for 5 days; viability, TEER)", "assay_type": "cell-based"}, "[6]": {"tested_on": "HIV-1BaL", "assay": "MAGI assay, anti-HIV-1BaL activity in TZMbl cells", "assay_type": "cell-based", "details": "TZM-bl, read-out: EC50 (95% confidence interval)", "protocol": "MAGI assay was performed to test anti-HIV-1BaL activity. […] Virus controls containing HIV-1BaL in saline were incubated under the same conditions. Following incubation, API-HIV-1BaL mixture was diluted 10-fold and added to TZMbl cells. Following 72-hour incubation, the cells were washed and stained with X-gal and fixed. […] Infected cells were counted using CTL instrument."}, "[7]": {"tested_on": "G. vaginalis", "assay": "Minimal cidal concentration (MCC)", "assay_type": "cell-based", "details": "30 minutes exposure; >3 log decrease in CFU considered cidal"}, "[8]": {"tested_on": "Ectocervical explants", "experimental": "Kruskal-Wallis test with Dunn's multiple comparison) (FIG. 22).\nIn FIG. 23, ectocervical explants were incubated with the selected concentrations of the APIs for 24 hr in the presence or absence of 5% VF. Explants were fixed, paraffin embedded, sectioned and stained with H&E.\nEctocervical explants were exposed to the APIs 24 hr in the presence or absence of 5% VF. Supernatants were collected and analyzed for pro-inflammatory cytokines."}, "[9]": {"tested_on": "C. trachomatis", "assay": "Bactericidal activity against C. trachomatis (inclusion count in HeLa cells)", "assay_type": "cell-based", "experimental": "C. trachomatis was incubated with actives ±2% VF and 20% SF for 2 hours at room temperature. The mixtures were serially diluted 1/10 in SPG solution, applied on HeLa cells in triplicate. Images were acquired using the Cytation-5 instrument and the inclusion count was analyzed using the Gen5 software in the Cytation-5. Control conditions included HeLa cells challenged with C. trachomatis in the absence of the actives. (FIG. 15)."}, "[10]": {"details": "rat, in vivo, 10 days"}, "[11]": {"tested_on": "lactobacillus", "assay": "Non-cidal concentrations in lactobacillus (MCC 30 min)", "assay_type": "cell-based"}, "[12]": {"tested_on": "human sperm", "assay": "Sperm motility assay", "assay_type": "cell-based", "details": "for Average Motility Reduction: average of nine 3-API checkerboard combinations containing the named API at this dose; for EC50 / EC90: Homo sapiens, Sperm", "experimental": "Fresh human sperm samples were obtained the day of the experiment. 100 mM stock solutions of each API in saline were prepared in advance. Immediately prior to the experiment, solutions of each API concentration to be tested were prepared via dilution with saline. These include solutions of multiple APIs added together.\nThe effect of each API on sperm motility and viability was determined using human donors, adding 200 μL of API's diluted in sterile saline to 50 μL of fresh semen. For motility assessments, the incubation mixture was incubated for 5 minutes and then 100 sperm were counted under the microscope by two andrology-trained researchers and classified as either non-motile or motile. If motile, the sperm were further classified according to the nature of their motility—from barely twitching with no forward progression to progressively motile. Each experiment was repeated at least three times on different days using different donors to account for natural variations in sperm properties.\nThe % motility for each experimental condition was calculated by normalizing the fraction of motile sperm in the experimental groups to the fraction of motile sperm in the saline control treated group, setting 100% to the average fraction of motile sperm from control experiments. For example, the % motility at concentration c would be:\nOnce % motility data was obtained, the synergy was measured with Compusyn software. See Chou et al., CompuSyn for drug combinations: PC software and user's guide: a computer program for quantitation of synergism and antagonism in drug combinations, and the determination of IC50. ED50 and LD50 values, which is incorporated herein by reference in its entirety. Motility data for individual API concentration as well as all double and triple API solutions was entered into the program and analyzed according to the Chou-Talalay Median Effect Principle.\nNext, the synergy between each of the APIs was tested to determine if there were any synergistic effects between compounds which would allow for reduced dosages. Each of the three possible two-compound combinations were tested, followed by the combination of all three APIs. […] Synergy was calculated with Compusyn using the Chou-Talalay Median Effect approach and represented as a CI (Combination Index) value. […] The smaller the CI value for a combination, the greater the degree of synergy.\nAfter the two-API combinations were complete, the full three-way synergy was tested using a 3×3×3 checkerboard style assay to test all 27 permutations of three chosen concentrations for each of the three APIs.\nFrom the resulting data, the estimated effects of each of the individual API were isolated by averaging % reduction in motility and the CI values for each of the API concentrations tested. With this 3×3×3 checkerboard assay, each single concentration was tested against nine permutations of the other two APIs, meaning that each cell in Table 4 represents the average of the nine combinations involving the specified API concentration.\nSynergy was calculated utilizing the Chou-Talalay median effect principle and Compusyn software which quantifies synergy as a combination index (CI) for each combination. A CI<1 signifies synergy, a CI>1 signifies antagonism and a CI=1 signifies a purely additive effect."}}, "note": "Like-named read-outs stand apart in the source and are kept apart here.", "data": [{"compound": "CC(O)C(=O)O", "note": "(racemic) [LA, lactic acid]", "values": [{"measurement": "EC50", "setting": "[1]", "value": 0.16, "unit": "mM"}, {"measurement": "MCC 10% AB Serum", "setting": "[2]; 10% AB serum", "value": 111, "unit": "mM"}, {"measurement": "MCC 30% AB Serum", "setting": "[2]; 30% AB serum", "value": 111, "unit": "mM"}, {"measurement": "MCC", "setting": "[2]; 30 minutes exposure, >3 log decrease in CFU considered cidal", "value": 111, "unit": "mM"}, {"measurement": "MCC No Serum", "setting": "[2]; no serum", "value": 111, "unit": "mM"}, {"measurement": "EC90", "setting": "[3]; 0.5 h, single API, 1% methylcellulose, 30 minutes, read-out: Inhibition of Sperm Mucus Penetration EC90 [95% CI] (Migration of vanguard sperm in methyl cellulose spiked with API)", "value": 5, "unit": "mM"}, {"measurement": "EC90", "setting": "[3]; Table 16, concentration of the named API in the CS + ZL + LA combination (cf. Table 7), read-out: Anti-Sperm concentrations Sperm-mucus penetration (EC90)", "value": 1.5, "unit": "mM"}, {"measurement": "concentration up to which exposure alone did not induce toxicity", "setting": "[4]; single active, 24 h single exposure, summary of ectocervix and VEC-100 findings", "value": "up to 222 mM"}, {"measurement": "Non-toxic concentrations in VEC-100 model TEER and LDH 24 h", "setting": "[4]; single treatment", "value": 222, "unit": "mM"}, {"measurement": "VEC-100 single exposure (MTT, TEER and LDH) day 1-5 24 h No VF", "setting": "[5]; 22 mM", "value": "No Tox"}, {"measurement": "Non-toxic concentrations in VEC-100 model TEER and LDH 5 daily exposures", "setting": "[5]; multiple treatments", "value": 22, "unit": "mM"}, {"measurement": "EC50", "setting": "[6]", "value": 2.5, "unit": "mM"}, {"measurement": "MCC", "setting": "[7]", "value": 111, "unit": "mM"}, {"measurement": "Ectocervix: single exposure (MTT, Histology, CC) 24 h, 5% VF", "setting": "[8]; 111 mM", "value": "No Tox"}, {"measurement": "Ectocervix: single exposure (MTT, Histology, CC) 24 h, No VF", "setting": "[8]; 111 mM", "value": "No Tox"}, {"measurement": "Ectocervix: single exposure (MTT, Histology, CC) 24 h, 5% VF", "setting": "[8]; 222 mM", "value": "No Tox"}, {"measurement": "Ectocervix: single exposure (MTT, Histology, CC) 24 h, No VF", "setting": "[8]; 222 mM", "value": "No Tox"}, {"measurement": "Non-toxic concentrations in ectocervix MTT and histology 24 hr", "setting": "[8]; single treatment", "value": 222, "unit": "mM"}, {"measurement": "anti-C. trachomatis activity (in words)", "setting": "[9]; LA concentrations lower than 80 mM", "value": "no activity was observed"}, {"measurement": "inhibition of C. trachomatis infection (in words)", "setting": "[9]; absence or presence of 2% VF and 20% SF, 2 hours at room temperature, LA 80 mM", "value": "significantly inhibited infection"}, {"measurement": "Non-toxic concentrations based on rat vaginal irritation study 10 days exposure", "setting": "[10]", "value": 200, "unit": "mM"}, {"measurement": "Non-cidal concentrations in lactobacillus MCC 30 min", "setting": "[11]", "value": 222, "unit": "mM"}, {"measurement": "Average Motility Reduction", "setting": "[12]; Dose 1 (CS 2.95, ZA 4.75, LA 10.26 mM)", "value": 54.75, "unit": "%"}, {"measurement": "Average Motility Reduction", "setting": "[12]; Dose 2 (CS 3.94, ZA 6.34, LA 13.70 mM)", "value": 70.74, "unit": "%"}, {"measurement": "Average Motility Reduction", "setting": "[12]; Dose 3 (CS 5.90, ZA 9.51, LA 20.54 mM)", "value": 91.84, "unit": "%"}, {"measurement": "EC50", "setting": "[12]; 5 min, single API (CS/ZA/LA study), saline, 5 min with fresh semen, % motility vs saline control", "value": 20.5, "unit": "mM"}, {"measurement": "EC90", "setting": "[12]; 5 min, single API (CS/ZA/LA study), saline, 5 min with fresh semen, % motility vs saline control, read-out: EC90", "value": 28.7, "unit": "mM"}, {"measurement": "EC90", "setting": "[12]; Table 16, concentration of the named API in the CS + ZL + LA combination (cf. Table 7), read-out: Anti-Sperm concentrations Total motility (EC90)", "value": 21, "unit": "mM"}, {"measurement": "EC50", "setting": "[12]; single API (CS/ZL/LA study)", "value": 21, "unit": "mM"}, {"measurement": "EC90", "setting": "[12]; single API (CS/ZL/LA study), read-out: EC90", "value": 29, "unit": "mM"}, {"measurement": "EC90", "setting": "[12]; single API, read-out: Reduction of Sperm Motility EC90 [95% CI] (concentration to inhibit total sperm motility)", "value": 29, "unit": "mM"}, {"measurement": "MIC (concentration to inhibit progressive sperm motility)", "setting": "[12]; single API", "value": 20, "unit": "mM"}]}]}
